ChEMBL document CHEMBL2040842, “Synthesis and Biochemical Testing of 3-(Carboxyphenylethyl)imidazo[2,1-f][1,2,4]triazines as Inhibitors of AMP Deaminase” (ACS Med Chem Lett, 2010)

Key:
[1] = Inhibition of AMP deaminase
[2] = Inhibition of human recombinant AMPD1 deltaM54 mutant expressed in Sf9 cells
[3] = Inhibition of human recombinant AMPD2-1A/2 expressed in Sf9 cells
AMP deaminase 3 = molecular target: T1, AMP deaminase 3 (Homo sapiens, UniProt Q01432); assay: Inhibition of human recombinant AMPD3-1b expressed in Sf9 cells
T1 sequence (Q01432 whole entry): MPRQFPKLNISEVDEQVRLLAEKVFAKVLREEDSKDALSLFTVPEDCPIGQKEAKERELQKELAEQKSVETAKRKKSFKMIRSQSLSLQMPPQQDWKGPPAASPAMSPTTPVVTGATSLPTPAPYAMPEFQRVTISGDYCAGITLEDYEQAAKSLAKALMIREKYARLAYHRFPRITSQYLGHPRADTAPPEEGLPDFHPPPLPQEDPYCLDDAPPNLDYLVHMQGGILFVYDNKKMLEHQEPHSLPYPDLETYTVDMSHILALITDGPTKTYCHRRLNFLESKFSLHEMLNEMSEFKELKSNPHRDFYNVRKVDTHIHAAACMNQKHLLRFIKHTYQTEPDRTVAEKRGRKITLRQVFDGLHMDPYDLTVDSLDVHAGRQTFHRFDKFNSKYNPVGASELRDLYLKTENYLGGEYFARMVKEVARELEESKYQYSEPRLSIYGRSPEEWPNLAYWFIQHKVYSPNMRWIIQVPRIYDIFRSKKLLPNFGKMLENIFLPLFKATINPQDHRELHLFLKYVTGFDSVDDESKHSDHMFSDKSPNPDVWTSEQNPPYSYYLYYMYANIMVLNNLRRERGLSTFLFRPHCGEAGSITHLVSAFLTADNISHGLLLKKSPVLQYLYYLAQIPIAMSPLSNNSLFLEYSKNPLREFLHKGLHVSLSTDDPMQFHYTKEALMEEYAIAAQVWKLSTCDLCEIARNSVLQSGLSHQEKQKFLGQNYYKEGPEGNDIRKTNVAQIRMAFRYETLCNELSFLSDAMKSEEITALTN

AMP deaminase = AMP deaminase (Arabidopsis thaliana, UniProt O80452, V211M); assay: Inhibition of Arabidopsis recombinant AMPD deltaV211M mutant expressed in Sf9 cells
Sequence of AMP deaminase (O80452 whole entry V211M): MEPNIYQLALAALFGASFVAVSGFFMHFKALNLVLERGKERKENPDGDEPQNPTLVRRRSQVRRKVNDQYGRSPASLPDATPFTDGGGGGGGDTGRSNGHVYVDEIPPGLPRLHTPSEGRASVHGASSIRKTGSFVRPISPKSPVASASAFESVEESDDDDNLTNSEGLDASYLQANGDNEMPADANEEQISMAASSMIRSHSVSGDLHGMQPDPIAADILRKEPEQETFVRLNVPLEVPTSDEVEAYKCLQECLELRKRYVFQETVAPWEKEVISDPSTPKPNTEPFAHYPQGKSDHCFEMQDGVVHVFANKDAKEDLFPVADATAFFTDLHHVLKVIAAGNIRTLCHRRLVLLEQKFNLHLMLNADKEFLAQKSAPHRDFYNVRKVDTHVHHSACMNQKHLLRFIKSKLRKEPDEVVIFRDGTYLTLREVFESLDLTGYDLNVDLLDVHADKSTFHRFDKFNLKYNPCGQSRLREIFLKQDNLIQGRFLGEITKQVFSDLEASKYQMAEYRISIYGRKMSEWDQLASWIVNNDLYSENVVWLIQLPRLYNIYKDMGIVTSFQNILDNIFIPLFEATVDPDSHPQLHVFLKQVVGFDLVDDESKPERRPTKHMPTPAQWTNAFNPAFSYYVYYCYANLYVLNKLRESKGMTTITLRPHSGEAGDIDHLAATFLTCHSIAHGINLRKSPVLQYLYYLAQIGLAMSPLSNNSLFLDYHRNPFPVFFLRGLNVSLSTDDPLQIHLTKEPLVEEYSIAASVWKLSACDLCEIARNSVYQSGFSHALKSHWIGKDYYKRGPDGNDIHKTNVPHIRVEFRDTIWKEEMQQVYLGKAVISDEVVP

AMP deaminase 1 = molecular target: T2, AMP deaminase 1 (Homo sapiens, UniProt P23109); assay: Inhibition of human skeletal muscle AMPD1; set-up: species or system Muscle tissue
T2 sequence (P23109 whole entry): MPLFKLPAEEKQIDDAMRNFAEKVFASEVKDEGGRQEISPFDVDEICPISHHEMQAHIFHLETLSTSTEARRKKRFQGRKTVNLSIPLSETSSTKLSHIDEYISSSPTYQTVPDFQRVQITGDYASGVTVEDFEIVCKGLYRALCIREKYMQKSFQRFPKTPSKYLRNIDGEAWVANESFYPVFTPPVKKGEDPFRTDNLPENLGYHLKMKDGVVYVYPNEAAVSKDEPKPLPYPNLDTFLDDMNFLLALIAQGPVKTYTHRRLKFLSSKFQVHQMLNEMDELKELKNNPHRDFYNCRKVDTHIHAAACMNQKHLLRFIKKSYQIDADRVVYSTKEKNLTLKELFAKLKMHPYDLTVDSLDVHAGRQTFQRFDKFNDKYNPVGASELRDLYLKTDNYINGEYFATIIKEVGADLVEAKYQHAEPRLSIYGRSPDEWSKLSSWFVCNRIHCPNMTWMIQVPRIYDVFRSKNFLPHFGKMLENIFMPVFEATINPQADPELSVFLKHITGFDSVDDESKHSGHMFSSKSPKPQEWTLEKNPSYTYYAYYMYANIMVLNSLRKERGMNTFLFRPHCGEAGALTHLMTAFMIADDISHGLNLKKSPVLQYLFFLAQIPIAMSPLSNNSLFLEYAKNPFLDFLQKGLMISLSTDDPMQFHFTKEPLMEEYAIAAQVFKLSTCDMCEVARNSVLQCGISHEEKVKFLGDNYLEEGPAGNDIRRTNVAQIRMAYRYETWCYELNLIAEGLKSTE

[4] = Inhibition of porcine heart AMPD3; set-up: species or system Sus scrofa

O=P(O)(O)OC[C@H]1O[C@@H](n2cnc3c2N=CNC[C@H]3O)[C@H](O)[C@@H]1O
Ki [1]: 5.5 pM

O=C(O)c1cccc(CCc2cnc3cncnn23)c1
IC50 [2]: 310 µM
IC50 [3]: 100 µM
IC50 (AMP deaminase 3): 370 µM
IC50 (AMP deaminase): 1400 µM

O=C(O)c1cc2c(c(CCc3cnc4cncnn34)c1)CCCC2
IC50 [2]: 5.7 µM
IC50 [3]: 2.3 µM
IC50 (AMP deaminase 3): 0.9 µM
IC50 (AMP deaminase): 200 µM

O=C(O)c1cc(CCn2cnc3c2N=CNCC3O)c2c(c1Br)CCCC2 (stereo unspecified)
IC50 (AMP deaminase 1): 0.5 µM

O=C(O)c1cccc(CCn2cnc3c2NC=NCC3O)c1 (stereo unspecified)
Ki [4]: 0.51 µM
